Values of other authors as cited in patent publication US20110269740A1, “JAK KINASE MODULATING COMPOUNDS AND METHODS OF USE THEREOF” (Ambit Biosciences Corporation, priority 2008, published 2011).
Where two headings read alike, the source gives them in different places.

What was measured:
[1] = system: CML cell lines such as 32Dp210 and K562, as well as mouse Bcr-Abl+32D cells; settings: CML cell lines 32Dp210, K562, mouse Bcr-Abl+32D
[2] = system: prostate cancer cell DU145
[3] = system: BCR-Abl+BaF3 cells which carried the Abl T315I mutation; settings: imatinib-resistant
transplant rejection [4] = settings: murine heterotopic heart transplant model, orally available
transplant rejection [5] = settings: non-human primate renal transplant model, orally available

| SMILES | downstream effect on c-Myc [1] | apoptosis [2] | apoptosis [3] | prevention of transplant rejection (transplant rejection [4]) | prevention of transplant rejection (transplant rejection [5]) |
| --- | --- | --- | --- | --- | --- |
| N#C/C(=C/c1ccc(O)c(O)c1)C(=O)NCc1ccccc1 [AG490] | reduction of c-Myc | induced apoptosis | induce apoptosis |  |  |
| C[C@@H]1CCN(C(=O)CC#N)C[C@@H]1N(C)c1ncnc2[nH]ccc12 [CP-690550] |  |  |  | efficacy in preventing transplant rejection | efficacy in preventing transplant rejection |
